Measurements published in PubChem BioAssay AID330 (DTP/NCI, 2004).
Several values for one entry are separate records, joined by “and”; a condition that tells them apart may be missing. Equal entries are not always repeated. Toxic doses and inconclusive results are not listed. How the source made its calls: active means survival T/C of 150% or more; inactive means T/C below 125% in these data.

Test system: P388 leukemia ip, CD2F1 mice, survival T/C
Test: NCI In Vivo Anticancer Drug Screen. Data for tumor model P388 Leukemia (intraperitoneal) in CD2F1 (CDF1) mice
Details: endpoint: median survival time, higher = longer survival
In short: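 Mice carrying the transplanted tumor received test compound or vehicle. Survival was recorded in each group, and the value is the treated-group measurement divided by that of the vehicle-treated control group.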

[1] = dose: 50.0 mg/kg/injection, schedule: Q01DX009 (ip), vehicle: saline with Tween-80
[2] = dose: 100.0 mg/kg/injection, schedule: Q01DX009 (ip), vehicle: saline with Tween-80
[3] = dose: 200.0 mg/kg/injection, schedule: Q01DX009 (ip), vehicle: saline with Tween-80
[4] = dose: 50.0 mg/kg/injection, schedule: Q01DX005 (ip), vehicle: saline with Tween-80
[5] = dose: 100.0 mg/kg/injection, schedule: Q01DX005 (ip), vehicle: saline with Tween-80
[6] = dose: 200.0 mg/kg/injection, schedule: Q01DX005 (ip), vehicle: saline with Tween-80
[7] = dose: 60.0 mg/kg/injection, schedule: Q01DX005 (ip), vehicle: saline with Tween-80
[8] = dose: 25.0 mg/kg/injection, schedule: Q01DX009 (ip), vehicle: saline with Tween-80

Measured: T/C

COc1cc([N+](=O)[O-])cc2c1OC1(N=C2)Sc2ccccc2N1C (stereo unspecified)
inactive: dose: 100.0 mg/kg/injection, schedule: Q01DX001 (ip), vehicle: saline 103 % of control | dose: 200.0 mg/kg/injection, schedule: Q01DX001 (ip), vehicle: saline 100 % of control | dose: 400.0 mg/kg/injection, schedule: Q01DX001 (ip), vehicle: saline 103 % of control

Clc1ccc(Cl)nn1
inactive: [1] 97 % of control | [2] 100 % of control | [3] 100 % of control

c1ccc2cc(-c3nc4cccc5c4n3CCC5)ccc2c1
inactive: [2] 105 % of control | [3] 95 % of control | dose: 400.0 mg/kg/injection, schedule: Q01DX009 (ip), vehicle: saline with Tween-80 115 % of control

O=C1N[C@@H](Cc2ccccc2)C(=O)N2CSC[C@H]12
inactive: dose: 100.0 mg/kg/injection, schedule: Q01DX001 (ip), vehicle: Klucel (hydroxypropylcellulose) (HPC) 99 % of control | dose: 200.0 mg/kg/injection, schedule: Q01DX001 (ip), vehicle: Klucel (hydroxypropylcellulose) (HPC) 102 % of control | dose: 400.0 mg/kg/injection, schedule: Q01DX001 (ip), vehicle: Klucel (hydroxypropylcellulose) (HPC) 102 % of control

CC(=O)N1CCc2ccccc2C1C1NCCc2ccccc21 (stereo unspecified)
inactive: dose: 100.0 mg/kg/injection, schedule: Q04DX003 (ip), vehicle: Klucel (hydroxypropylcellulose) (HPC) 95 % of control | dose: 200.0 mg/kg/injection, schedule: Q04DX003 (ip), vehicle: Klucel (hydroxypropylcellulose) (HPC) 94 % of control

COC(=O)C1(c2ccccc2)OP2(N(C)C)(OC1(C(=O)OC)c1ccccc1)N(C)CCN2C (stereo unspecified)
inactive: dose: 50.0 mg/kg/injection, schedule: Q01DX005 (ip), vehicle: saline + Tween-80 + alcohol 104 % of control | [4] 102 % of control | dose: 100.0 mg/kg/injection, schedule: Q01DX005 (ip), vehicle: saline + Tween-80 + alcohol 100 % of control | [5] 102 % of control | dose: 200.0 mg/kg/injection, schedule: Q01DX005 (ip), vehicle: saline + Tween-80 + alcohol 100 % of control | [6] 105 % of control

CC(C(/C=N/NC(N)=S)=N/NC(N)=S)N1C(=O)c2ccccc2C1=O (stereo unspecified)
inactive: [7] 97 % of control | dose: 120.0 mg/kg/injection, schedule: Q01DX005 (ip), vehicle: saline with Tween-80 94 % of control | dose: 240.0 mg/kg/injection, schedule: Q01DX005 (ip), vehicle: saline with Tween-80 88 % of control

N#CC(=C1N=c2ccccc2=N1)c1[nH]c(O)c2ccccc12
inactive: dose: 6.25 mg/kg/injection, schedule: Q01DX009 (ip), vehicle: saline with Tween-80 93 % of control | dose: 12.5 mg/kg/injection, schedule: Q01DX009 (ip), vehicle: saline with Tween-80 91 % of control | [8] 94 % of control

Cn1c(=O)c2c(nc(/N=C/c3ccco3)n2C)n(C)c1=O
inactive: dose: 100.0 mg/kg/injection, schedule: Q04DX003 (ip), vehicle: saline 91 % of control | dose: 200.0 mg/kg/injection, schedule: Q04DX003 (ip), vehicle: saline 90 % of control | dose: 400.0 mg/kg/injection, schedule: Q04DX003 (ip), vehicle: saline 92 % of control

C/C=C/C1OC(O)(C(C)C(O)C(C)C2OC(=O)/C(OC)=C/C(C)=C/C(C)C(O)C(CC)C(O)C(C)C/C(C)=C/C=C/C2OC)CC(OC(=O)/C=C/C(=O)NC2=C(O)CCC2=O)C1C (stereo unspecified)
inactive: dose: 0.75 mg/kg/injection, schedule: Q01DX005 (ip), vehicle: Klucel (hydroxypropylcellulose) (HPC) 118 % of control | dose: 1.5 mg/kg/injection, schedule: Q01DX005 (ip), vehicle: Klucel (hydroxypropylcellulose) (HPC) 110 % of control | dose: 3.0 mg/kg/injection, schedule: Q01DX005 (ip), vehicle: Klucel (hydroxypropylcellulose) (HPC) 108 % of control | dose: 6.0 mg/kg/injection, schedule: Q01DX005 (ip), vehicle: Klucel (hydroxypropylcellulose) (HPC) 110 % of control

OCC1OC(n2ncc3nccnc32)C(O)C1O (stereo unspecified)
inactive: dose: 32.0 mg/kg/injection, schedule: Q01DX002 (ip), vehicle: saline with Tween-80 98 % of control and 114 % of control | dose: 64.0 mg/kg/injection, schedule: Q01DX002 (ip), vehicle: saline with Tween-80 98 % of control and 109 % of control | dose: 128.0 mg/kg/injection, schedule: Q01DX002 (ip), vehicle: saline with Tween-80 112 % of control and 114 % of control

O=C1C(Cl)=C(N=Nc2c(Cl)c(O)c3ccccc3c2O)C(=O)c2ccccc21
inactive: dose: 1.56 mg/kg/injection, schedule: Q01DX009 (ip), vehicle: saline 101 % of control and 111 % of control | dose: 3.12 mg/kg/injection, schedule: Q01DX009 (ip), vehicle: saline 103 % of control and 108 % of control | dose: 6.25 mg/kg/injection, schedule: Q01DX009 (ip), vehicle: saline 108 % of control and 109 % of control | dose: 12.5 mg/kg/injection, schedule: Q01DX009 (ip), vehicle: saline 107 % of control and 117 % of control | dose: 25.0 mg/kg/injection, schedule: Q01DX009 (ip), vehicle: saline 102 % of control and 109 % of control | dose: 25.0 mg/kg/injection, schedule: Q01DX010 (ip), vehicle: saline 109 % of control | dose: 50.0 mg/kg/injection, schedule: Q01DX009 (ip), vehicle: saline 90 % of control and 97 % of control | dose: 50.0 mg/kg/injection, schedule: Q01DX010 (ip), vehicle: saline 100 % of control | dose: 100.0 mg/kg/injection, schedule: Q01DX010 (ip), vehicle: saline 109 % of control

CCOC(=O)C[N+](C)(C)C(C#N)C(C)c1ccccc1 (stereo unspecified)
inactive: dose: 60.0 mg/kg/injection, schedule: Q01DX005 (ip), vehicle: saline 95 % of control | dose: 120.0 mg/kg/injection, schedule: Q01DX005 (ip), vehicle: saline 95 % of control

CCn1c(=O)c2c(nc(Cl)n2C2OC(COC(C)=O)C(OC(C)=O)C(OC(C)=O)C2OC(C)=O)n(CC)c1=O (stereo unspecified)
inactive: dose: 25.0 mg/kg/injection, schedule: Q01DX009 (ip), vehicle: Klucel (hydroxypropylcellulose) (HPC) 100 % of control | dose: 50.0 mg/kg/injection, schedule: Q01DX009 (ip), vehicle: Klucel (hydroxypropylcellulose) (HPC) 99 % of control | dose: 100.0 mg/kg/injection, schedule: Q01DX009 (ip), vehicle: Klucel (hydroxypropylcellulose) (HPC) 99 % of control

Cn1c2c(c(=O)n(C)c1=O)CS(=O)c1ccccc1N2 (stereo unspecified)
inactive: dose: 25.0 mg/kg/injection, schedule: Q01DX005 (ip), vehicle: suspension in saline 103 % of control | dose: 50.0 mg/kg/injection, schedule: Q01DX005 (ip), vehicle: suspension in saline 96 % of control | dose: 100.0 mg/kg/injection, schedule: Q01DX005 (ip), vehicle: suspension in saline 96 % of control | dose: 200.0 mg/kg/injection, schedule: Q01DX005 (ip), vehicle: suspension in saline 97 % of control

O=[N+]([O-])c1cccc2c(Nc3ccc(S(=O)(=O)Nc4nccs4)cc3)c3ccccc3nc12
inactive: dose: 15.0 mg/kg/injection, schedule: Q01DX005 (ip), vehicle: saline with Tween-80 95 % of control | dose: 30.0 mg/kg/injection, schedule: Q01DX005 (ip), vehicle: saline with Tween-80 100 % of control | [7] 102 % of control and 97 % of control

c1ccc(N=NC2=NN(c3ccccc3)CS2)cc1
inactive: [8] 105 % of control and 106 % of control | [1] 101 % of control and 102 % of control | [2] 101 % of control and 102 % of control | [3] 101 % of control and 106 % of control

CC1=Cc2cc(C)cc(C)c2C1=O
inactive: [4] 90 % of control | [5] 93 % of control | [6] 96 % of control

O=C1C=C(Nc2ccccn2)C(=O)C=C1Nc1ccccn1
inactive: [4] 107 % of control | [5] 107 % of control | [6] 105 % of control

CCCCNC(=O)OCC1=C(COC(=O)NCCCC)C2OC1C(C(=O)OC)=C2C(=O)OC
inactive: dose: 3.13 mg/kg/injection, schedule: Q01DX009 (ip), vehicle: distilled water + Tween-80 109 % of control | dose: 6.25 mg/kg/injection, schedule: Q01DX009 (ip), vehicle: distilled water + Tween-80 101 % of control and 108 % of control and 113 % of control | dose: 50.0 mg/kg/injection, schedule: Q01DX009 (ip), vehicle: distilled water + Tween-80 104 % of control and 108 % of control | dose: 100.0 mg/kg/injection, schedule: Q01DX009 (ip), vehicle: distilled water + Tween-80 95 % of control
